Key:
[1] = molecular target: Matrix metalloproteinase-9 (Homo sapiens, UniProt P14780); format: cell-based;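 note: inhibition of isolated MMP-9 enzyme activity toward a synthetic peptide substrate, from the DrugMatrix protease screening panel; in other assays of this panel Not Active means under 50% inhibition at 10 µM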
[2] = DRUGMATRIX: Tumor Necrosis Factor (TNF), Non-Selective radioligand binding (ligand: [125I] TNF-alpha); format: cell membranes, Membrane; details: u-937; Not Active = under 50% inhibition at 10 µM
[3] = molecular target: Vasopressin V1a receptor (Homo sapiens, UniProt P37288); format: cell membranes, Membrane; details: hek293; note: in other assays of this panel Not Active means under 50% inhibition at 10 µM
Chain of Vasopressin V1a receptor (P37288 whole entry): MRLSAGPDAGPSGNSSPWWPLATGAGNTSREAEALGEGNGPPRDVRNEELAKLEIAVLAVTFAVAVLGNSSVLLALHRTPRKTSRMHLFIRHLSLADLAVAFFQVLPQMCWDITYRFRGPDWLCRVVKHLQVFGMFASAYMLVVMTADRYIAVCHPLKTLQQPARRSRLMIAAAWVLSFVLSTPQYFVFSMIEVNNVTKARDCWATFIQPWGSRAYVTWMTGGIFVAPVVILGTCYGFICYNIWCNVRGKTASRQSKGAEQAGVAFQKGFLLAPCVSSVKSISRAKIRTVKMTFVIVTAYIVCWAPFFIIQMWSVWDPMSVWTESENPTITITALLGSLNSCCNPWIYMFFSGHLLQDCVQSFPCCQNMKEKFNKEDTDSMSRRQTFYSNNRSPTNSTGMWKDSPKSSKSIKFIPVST

[4] = molecular target: T1, Muscarinic acetylcholine receptor M2 (Homo sapiens, UniProt P08172); format: cell membranes, CHO-K1, Membrane; details: cho-k1; note: in other assays of this panel Not Active means under 50% inhibition at 10 µM
T1 sequence (P08172 whole entry): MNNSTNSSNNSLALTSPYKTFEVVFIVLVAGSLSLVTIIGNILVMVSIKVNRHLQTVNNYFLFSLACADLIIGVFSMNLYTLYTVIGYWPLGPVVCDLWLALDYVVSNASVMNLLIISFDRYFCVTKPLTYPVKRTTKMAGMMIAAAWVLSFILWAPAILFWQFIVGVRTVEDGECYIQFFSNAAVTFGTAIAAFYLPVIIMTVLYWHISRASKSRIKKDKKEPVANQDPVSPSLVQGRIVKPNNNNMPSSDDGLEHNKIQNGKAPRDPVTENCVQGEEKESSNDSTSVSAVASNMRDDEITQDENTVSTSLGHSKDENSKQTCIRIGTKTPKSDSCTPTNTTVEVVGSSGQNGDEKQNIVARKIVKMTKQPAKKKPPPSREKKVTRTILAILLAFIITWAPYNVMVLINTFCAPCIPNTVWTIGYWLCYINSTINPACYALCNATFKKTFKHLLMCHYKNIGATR

[5] = molecular target: Protein phosphatase 3 catalytic subunit alpha (Homo sapiens, UniProt Q08209); design: species or system Escherichia coli;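 note: inhibition of calcineurin (PP2B) enzyme activity, measured with DiFMUP as the substrate; in other assays of this panel Not Active means under 50% inhibition at 10 µM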
[6] = molecular target: Prostaglandin G/H synthase 1 (Homo sapiens, UniProt P23219); assay: biochemical; format: tissue-based, Platelet; details: platelet
Chain of Prostaglandin G/H synthase 1 (P23219 whole entry): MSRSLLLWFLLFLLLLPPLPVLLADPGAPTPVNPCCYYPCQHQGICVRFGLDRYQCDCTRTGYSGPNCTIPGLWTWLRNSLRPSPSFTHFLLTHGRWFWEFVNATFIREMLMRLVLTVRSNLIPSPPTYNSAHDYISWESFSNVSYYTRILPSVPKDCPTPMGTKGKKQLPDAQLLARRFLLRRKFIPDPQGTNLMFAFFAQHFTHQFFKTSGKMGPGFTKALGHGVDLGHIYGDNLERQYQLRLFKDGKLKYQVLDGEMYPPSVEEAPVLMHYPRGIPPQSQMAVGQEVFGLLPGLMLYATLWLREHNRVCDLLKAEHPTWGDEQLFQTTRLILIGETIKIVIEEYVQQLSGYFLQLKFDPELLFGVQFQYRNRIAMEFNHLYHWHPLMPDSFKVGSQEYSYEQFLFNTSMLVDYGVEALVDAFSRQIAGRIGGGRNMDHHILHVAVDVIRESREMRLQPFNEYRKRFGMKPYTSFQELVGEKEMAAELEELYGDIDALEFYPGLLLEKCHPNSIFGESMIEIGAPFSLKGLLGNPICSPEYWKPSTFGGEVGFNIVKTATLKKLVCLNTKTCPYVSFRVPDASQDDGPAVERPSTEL

[7] = molecular target: Insulin receptor (Rattus norvegicus, UniProt P15127); format: cell membranes, Wistar, Liver, Membrane; note: in other assays of this panel Not Active means under 50% inhibition at 10 µM
Chain of Insulin receptor (P15127 27-759 limits assumed): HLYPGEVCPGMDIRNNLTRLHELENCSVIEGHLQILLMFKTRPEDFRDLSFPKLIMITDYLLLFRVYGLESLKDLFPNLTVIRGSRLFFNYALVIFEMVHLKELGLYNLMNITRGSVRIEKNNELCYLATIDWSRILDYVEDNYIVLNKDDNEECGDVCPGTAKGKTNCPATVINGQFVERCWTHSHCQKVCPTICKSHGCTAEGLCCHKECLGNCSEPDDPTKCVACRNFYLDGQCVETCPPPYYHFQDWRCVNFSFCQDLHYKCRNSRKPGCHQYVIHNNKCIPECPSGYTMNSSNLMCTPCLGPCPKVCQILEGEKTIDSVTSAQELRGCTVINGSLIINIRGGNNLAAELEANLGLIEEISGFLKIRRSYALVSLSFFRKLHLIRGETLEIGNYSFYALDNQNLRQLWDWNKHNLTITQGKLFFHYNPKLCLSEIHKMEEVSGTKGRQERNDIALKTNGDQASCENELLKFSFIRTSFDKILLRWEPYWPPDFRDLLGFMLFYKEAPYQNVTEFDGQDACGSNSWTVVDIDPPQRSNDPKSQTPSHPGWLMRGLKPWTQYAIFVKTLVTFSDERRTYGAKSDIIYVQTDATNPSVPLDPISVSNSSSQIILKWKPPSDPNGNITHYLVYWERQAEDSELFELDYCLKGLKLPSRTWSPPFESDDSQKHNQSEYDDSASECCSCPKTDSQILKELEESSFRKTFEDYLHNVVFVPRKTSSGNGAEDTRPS
Chain of Insulin receptor (P15127 764-1383 limits assumed): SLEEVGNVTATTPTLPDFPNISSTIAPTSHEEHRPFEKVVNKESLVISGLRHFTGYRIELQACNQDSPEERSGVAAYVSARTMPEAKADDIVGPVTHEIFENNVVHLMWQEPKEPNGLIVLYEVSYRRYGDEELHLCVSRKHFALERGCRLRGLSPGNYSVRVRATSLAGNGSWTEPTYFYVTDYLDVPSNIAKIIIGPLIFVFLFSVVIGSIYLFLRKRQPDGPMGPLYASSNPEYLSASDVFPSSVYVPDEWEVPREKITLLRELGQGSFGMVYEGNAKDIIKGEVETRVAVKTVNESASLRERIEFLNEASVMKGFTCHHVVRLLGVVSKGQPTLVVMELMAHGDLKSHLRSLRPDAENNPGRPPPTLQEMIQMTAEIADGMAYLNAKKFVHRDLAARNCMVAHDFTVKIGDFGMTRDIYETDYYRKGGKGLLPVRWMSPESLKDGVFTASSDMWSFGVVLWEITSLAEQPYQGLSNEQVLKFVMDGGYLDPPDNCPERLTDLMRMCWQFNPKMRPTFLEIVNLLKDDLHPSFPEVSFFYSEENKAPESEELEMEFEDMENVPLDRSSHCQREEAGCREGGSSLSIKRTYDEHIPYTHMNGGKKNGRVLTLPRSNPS

[8] = molecular target: T2, B2 bradykinin receptor (Homo sapiens, UniProt P30411); format: cell membranes, Membrane; details: chem-1; note: in other assays of this panel Not Active means under 50% inhibition at 10 µM
T2 sequence (P30411 whole entry): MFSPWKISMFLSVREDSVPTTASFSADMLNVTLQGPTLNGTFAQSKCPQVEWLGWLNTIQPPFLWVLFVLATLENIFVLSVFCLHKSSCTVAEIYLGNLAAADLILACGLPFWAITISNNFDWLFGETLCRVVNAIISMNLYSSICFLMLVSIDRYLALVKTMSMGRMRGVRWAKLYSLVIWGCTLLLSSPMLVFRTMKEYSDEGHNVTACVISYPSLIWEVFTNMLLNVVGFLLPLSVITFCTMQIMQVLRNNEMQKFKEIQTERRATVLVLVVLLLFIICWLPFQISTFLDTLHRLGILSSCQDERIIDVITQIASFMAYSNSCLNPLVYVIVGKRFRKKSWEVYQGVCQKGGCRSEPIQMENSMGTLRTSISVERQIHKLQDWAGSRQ

[9] = molecular target: T3, Neutrophil elastase (Homo sapiens, UniProt P08246); format: tissue-based
T3 sequence (P08246 whole entry): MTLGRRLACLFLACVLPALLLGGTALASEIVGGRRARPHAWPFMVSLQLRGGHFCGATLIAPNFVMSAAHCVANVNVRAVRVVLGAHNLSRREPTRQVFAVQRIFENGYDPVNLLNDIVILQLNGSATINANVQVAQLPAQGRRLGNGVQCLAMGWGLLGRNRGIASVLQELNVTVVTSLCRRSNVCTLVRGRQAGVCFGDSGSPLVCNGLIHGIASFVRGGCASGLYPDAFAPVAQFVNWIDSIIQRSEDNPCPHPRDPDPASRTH

[10] = DRUGMATRIX: Leukotriene, BLT (LTB4) radioligand binding (ligand: [3H]LTB4); format: cell membranes, Membrane; details: u-937; Not Active = under 50% inhibition at 10 µM
[11] = molecular target: T4, Nitric oxide synthase, inducible (Mus musculus, UniProt P29477); design: species or system Escherichia coli
T4 sequence (P29477 whole entry): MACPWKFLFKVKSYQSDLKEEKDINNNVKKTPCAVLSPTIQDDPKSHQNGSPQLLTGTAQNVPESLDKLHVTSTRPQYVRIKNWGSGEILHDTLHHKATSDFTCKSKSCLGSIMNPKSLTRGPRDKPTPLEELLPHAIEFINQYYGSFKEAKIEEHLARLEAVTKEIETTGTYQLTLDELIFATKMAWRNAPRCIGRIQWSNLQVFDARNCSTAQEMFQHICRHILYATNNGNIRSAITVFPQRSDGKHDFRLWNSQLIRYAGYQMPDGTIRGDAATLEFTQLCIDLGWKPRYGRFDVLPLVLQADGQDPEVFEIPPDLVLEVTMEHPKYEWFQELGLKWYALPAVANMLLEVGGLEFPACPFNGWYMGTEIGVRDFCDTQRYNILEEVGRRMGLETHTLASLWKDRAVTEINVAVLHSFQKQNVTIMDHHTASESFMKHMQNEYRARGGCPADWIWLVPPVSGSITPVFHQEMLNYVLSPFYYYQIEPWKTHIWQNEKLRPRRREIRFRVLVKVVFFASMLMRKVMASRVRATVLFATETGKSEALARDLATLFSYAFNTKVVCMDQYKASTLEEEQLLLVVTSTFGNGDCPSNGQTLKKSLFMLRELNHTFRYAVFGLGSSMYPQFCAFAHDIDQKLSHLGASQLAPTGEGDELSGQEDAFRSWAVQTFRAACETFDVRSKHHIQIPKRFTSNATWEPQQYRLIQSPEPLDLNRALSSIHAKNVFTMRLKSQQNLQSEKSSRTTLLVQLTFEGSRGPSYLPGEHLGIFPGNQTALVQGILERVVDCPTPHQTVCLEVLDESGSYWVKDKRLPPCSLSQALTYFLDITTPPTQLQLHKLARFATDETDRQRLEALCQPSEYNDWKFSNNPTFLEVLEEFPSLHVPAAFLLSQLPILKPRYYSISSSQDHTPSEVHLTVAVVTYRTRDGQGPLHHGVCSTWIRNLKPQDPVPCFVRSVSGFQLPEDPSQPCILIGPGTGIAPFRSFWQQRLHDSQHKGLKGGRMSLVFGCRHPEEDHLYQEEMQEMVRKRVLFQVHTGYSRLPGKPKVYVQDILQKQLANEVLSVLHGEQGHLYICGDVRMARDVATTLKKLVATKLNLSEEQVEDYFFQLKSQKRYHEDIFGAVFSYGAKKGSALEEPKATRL

[12] = molecular target: Nitric oxide synthase 1 (Rattus norvegicus, UniProt P29476); format: tissue-based, Cerebellum; note: in other assays of this panel Not Active means under 50% inhibition at 10 µM
Chain of Nitric oxide synthase 1 (P29476 whole entry): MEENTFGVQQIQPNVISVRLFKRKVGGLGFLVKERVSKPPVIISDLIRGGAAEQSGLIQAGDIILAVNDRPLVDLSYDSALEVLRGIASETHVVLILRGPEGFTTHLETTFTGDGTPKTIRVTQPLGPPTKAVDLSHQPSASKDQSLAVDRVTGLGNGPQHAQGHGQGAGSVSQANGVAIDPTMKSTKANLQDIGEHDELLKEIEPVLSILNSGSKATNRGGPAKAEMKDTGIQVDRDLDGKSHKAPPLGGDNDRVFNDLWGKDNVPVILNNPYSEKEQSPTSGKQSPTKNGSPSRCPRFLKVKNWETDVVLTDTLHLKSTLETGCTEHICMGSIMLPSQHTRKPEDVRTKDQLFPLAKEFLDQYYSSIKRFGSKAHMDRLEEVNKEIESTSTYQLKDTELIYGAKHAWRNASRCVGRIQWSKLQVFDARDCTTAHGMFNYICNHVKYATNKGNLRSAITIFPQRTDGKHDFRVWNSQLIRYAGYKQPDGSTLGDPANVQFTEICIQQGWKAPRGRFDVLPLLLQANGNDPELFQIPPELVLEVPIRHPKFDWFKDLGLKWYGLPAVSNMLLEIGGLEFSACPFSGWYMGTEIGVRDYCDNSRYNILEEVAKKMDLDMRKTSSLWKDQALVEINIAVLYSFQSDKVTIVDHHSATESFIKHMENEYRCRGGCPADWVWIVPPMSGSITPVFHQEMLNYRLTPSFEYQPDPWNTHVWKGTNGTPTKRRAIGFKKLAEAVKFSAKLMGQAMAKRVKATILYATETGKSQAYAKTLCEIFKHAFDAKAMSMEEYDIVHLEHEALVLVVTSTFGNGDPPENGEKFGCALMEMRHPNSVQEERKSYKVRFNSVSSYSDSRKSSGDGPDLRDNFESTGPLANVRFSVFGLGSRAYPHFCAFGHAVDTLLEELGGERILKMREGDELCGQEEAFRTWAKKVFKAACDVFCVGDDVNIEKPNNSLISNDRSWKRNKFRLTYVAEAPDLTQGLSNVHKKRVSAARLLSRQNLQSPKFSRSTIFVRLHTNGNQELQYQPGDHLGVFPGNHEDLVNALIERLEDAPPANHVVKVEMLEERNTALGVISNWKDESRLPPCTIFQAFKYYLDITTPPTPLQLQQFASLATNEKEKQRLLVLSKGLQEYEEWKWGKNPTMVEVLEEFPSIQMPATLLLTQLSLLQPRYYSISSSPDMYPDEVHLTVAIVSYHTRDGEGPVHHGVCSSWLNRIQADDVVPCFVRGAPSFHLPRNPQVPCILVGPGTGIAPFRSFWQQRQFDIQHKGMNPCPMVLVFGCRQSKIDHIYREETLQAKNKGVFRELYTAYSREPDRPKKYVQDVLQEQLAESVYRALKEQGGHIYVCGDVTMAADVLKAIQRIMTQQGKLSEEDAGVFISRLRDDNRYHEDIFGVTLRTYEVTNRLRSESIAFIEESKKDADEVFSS

[13] = DRUGMATRIX: Imidazoline I2, Central radioligand binding (ligand: [3H] Idazoxan); format: cell membranes, Rattus norvegicus, Wistar, Cerebral cortex, Membrane; details: Not Active = under 50% inhibition at 10 µM

Chain of Matrix metalloproteinase-9 (P14780 whole entry): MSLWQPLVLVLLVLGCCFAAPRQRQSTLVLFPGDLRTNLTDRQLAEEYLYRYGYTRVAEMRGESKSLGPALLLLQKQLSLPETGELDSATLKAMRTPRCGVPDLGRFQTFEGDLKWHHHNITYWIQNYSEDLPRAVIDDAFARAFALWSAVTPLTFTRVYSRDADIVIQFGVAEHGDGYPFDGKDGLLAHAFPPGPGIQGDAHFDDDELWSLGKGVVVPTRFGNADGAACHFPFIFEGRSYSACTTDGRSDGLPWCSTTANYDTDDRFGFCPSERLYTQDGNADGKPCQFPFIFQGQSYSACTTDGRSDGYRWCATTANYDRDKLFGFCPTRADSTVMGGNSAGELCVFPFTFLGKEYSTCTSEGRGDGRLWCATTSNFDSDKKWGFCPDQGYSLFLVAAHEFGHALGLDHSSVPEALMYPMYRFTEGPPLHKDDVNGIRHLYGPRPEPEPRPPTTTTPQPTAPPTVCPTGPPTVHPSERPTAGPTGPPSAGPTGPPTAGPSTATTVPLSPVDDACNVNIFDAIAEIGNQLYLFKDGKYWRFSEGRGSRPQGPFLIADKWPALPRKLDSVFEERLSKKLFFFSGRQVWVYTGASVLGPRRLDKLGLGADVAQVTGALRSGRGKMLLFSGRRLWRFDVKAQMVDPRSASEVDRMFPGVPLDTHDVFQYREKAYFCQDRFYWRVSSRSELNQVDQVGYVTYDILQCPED

CC(=O)[C@H]1CC[C@H]2[C@@H]3CCC4=CC(=O)CC[C@]4(C)[C@H]3CC[C@]12C [PROGESTERONE]
Not Active: IC50 [1] | IC50 [2] | Ki [2] | IC50 [3] | IC50 [4] | IC50 [5] | IC50 [6] | IC50 [7] | IC50 [8] | IC50 [9] | IC50 [10] | Ki [10] | IC50 [11] | IC50 [12] | IC50 [13] | Ki [13]

Nc1ccc(S(=O)(=O)Nc2ccnn2-c2ccccc2)cc1 [SULFAPHENAZOLE]
Not Active: IC50 [1] | IC50 [2] | Ki [2] | IC50 [3] | IC50 [4] | IC50 [5] | IC50 [6] | IC50 [7] | IC50 [8] | IC50 [9] | IC50 [10] | Ki [10] | IC50 [11] | IC50 [12] | IC50 [13] | Ki [13]

CC(CCc1ccccc1)NCC(O)c1ccc(O)c(C(N)=O)c1 (stereo not drawn) [LABETALOL]
Not Active: IC50 [1] | IC50 [2] | Ki [2] | IC50 [3] | IC50 [4] | IC50 [5] | IC50 [6] | IC50 [7] | IC50 [8] | IC50 [9] | IC50 [10] | Ki [10] | IC50 [11] | IC50 [12] | IC50 [13] | Ki [13]

CC(C)(C)NC(=O)[C@@H]1CN(Cc2cccnc2)CCN1C[C@@H](O)C[C@@H](Cc1ccccc1)C(=O)N[C@H]1c2ccccc2C[C@H]1O.O
Not Active: IC50 [1] | IC50 [2] | Ki [2] | IC50 [3] | IC50 [4] | IC50 [5] | IC50 [6] | IC50 [7] | IC50 [8] | IC50 [9] | IC50 [10] | Ki [10] | IC50 [11] | IC50 [12] | IC50 [13] | Ki [13]

COc1c(C)c2c(c(O)c1C/C=C(\C)CCC(=O)OCCN1CCOCC1)C(=O)OC2 [MYCOPHENOLATE MOFETIL]
Not Active: IC50 [1] | IC50 [2] | Ki [2] | IC50 [3] | IC50 [4] | IC50 [5] | IC50 [6] | IC50 [7] | IC50 [8] | IC50 [9] | IC50 [10] | Ki [10] | IC50 [11] | IC50 [12] | IC50 [13] | Ki [13]

CN[C@H](CC(C)C)C(=O)N[C@H]1C(=O)N[C@@H](CC(N)=O)C(=O)N[C@H]2C(=O)N[C@H]3C(=O)N[C@H](C(=O)N[C@H](C(=O)O)c4cc(O)cc(O)c4-c4cc3ccc4O)[C@H](O)c3ccc(c(Cl)c3)Oc3cc2cc(c3O[C@@H]2O[C@H](CO)[C@@H](O)[C@H](O)[C@H]2O[C@H]2C[C@](C)(N)[C@H](O)[C@H](C)O2)Oc2ccc(cc2Cl)[C@H]1O [VANCOMYCIN]
Not Active: IC50 [1] | IC50 [2] | Ki [2] | IC50 [3] | IC50 [4] | IC50 [5] | IC50 [6] | IC50 [7] | IC50 [8] | IC50 [9] | IC50 [10] | Ki [10] | IC50 [11] | IC50 [12] | IC50 [13] | Ki [13]

CC(C)[C@H](N)C(=O)OCCOCn1cnc2c(=O)nc(N)[nH]c21 [VALACYCLOVIR]
Not Active: IC50 [1] | IC50 [2] | Ki [2] | IC50 [3] | IC50 [4] | IC50 [5] | IC50 [6] | IC50 [7] | IC50 [8] | IC50 [9] | IC50 [10] | Ki [10] | IC50 [11] | IC50 [12] | IC50 [13] | Ki [13]

COS(C)(=O)=O [METHANESULFONIC ACID METHYL ESTER]
Not Active: IC50 [1] | IC50 [2] | Ki [2] | IC50 [3] | IC50 [4] | IC50 [5] | IC50 [6] | IC50 [7] | IC50 [8] | IC50 [9] | IC50 [10] | Ki [10] | IC50 [11] | IC50 [12] | IC50 [13] | Ki [13]

— ChEMBL document CHEMBL1909046, “DrugMatrix in vitro pharmacology data”
